Measurements published in patent publication US20250145640A1, “2,2-DIFLUORO-5H-[1,3]DIOXOLO[4,5-F]ISOINDOL-7-ONE DERIVATIVES AS PESTICIDES” (SYNGENTA CROP PROTECTION AG, priority 2021, published 2025).

Key:
Assay type in all cases: in vivo
[1] = test system: Plutella xylostella (Diamond Back Moth); assay: Example B5: Activity against Plutella xylostella, artificial diet in 24-well microtiter plates; settings: 192 h, application rate 200 ppm, eggs, assessed 8 days after infestation, read-out: effect in at least one of the two categories (mortality or growth inhibition)
Protocol: Example B5: Activity Against Plutella xylostella (Diamond Back Moth)
24-well microtiter plates with artificial diet were treated with aqueous test solutions prepared from 10′000 ppm DMSO stock solutions by pipetting. After drying, Plutella eggs were pipetted through a plastic stencil onto a gel blotting paper and the plate was closed with it. The samples were assessed for mortality and growth inhibition in comparison to untreated samples 8 days after infestation.

[2] = test system: Spodoptera littoralis (Egyptian Cotton Leaf Worm); assay: Example B6: Activity against Spodoptera littoralis, sprayed cotton leaf discs on agar; settings: foliar, 72 h, application rate 200 ppm, L1 larvae, assessed 3 days after infestation, read-out: control (at least one of mortality, anti-feedant effect, growth inhibition)
Protocol: Example B6: Activity Against Spodoptera littoralis (Egyptian Cotton Leaf Worm)
Cotton leaf discs were placed onto agar in 24-well microtiter plates and sprayed with aqueous test solutions prepared from 10′000 ppm DMSO stock solutions. After drying the leaf discs were infested with five L1 larvae. The samples were assessed for mortality, anti-feeding effect, and growth inhibition in comparison to untreated samples 3 days after infestation. Control of Spodoptera littoralis by a test sample is given when at least one of the categories mortality, anti-feedant effect, and growth inhibition is higher than the untreated sample.

[3] = test system: Myzus persicae (Green peach aphid); assay: Example B4: Activity against Myzus persicae, feeding/contact activity on sunflower leaf discs; settings: foliar, 144 h, application rate 200 ppm, aphid population of mixed ages, assessed 6 days after infestation
Protocol: Example B4: Activity against Myzus persicae (Green peach aphid) Feeding/Contact activity Sunflower leaf discs were placed onto agar in a 24-well microtiter plate and sprayed with aqueous test solutions prepared from 10′000 ppm DMSO stock solutions. After drying, the leaf discs were infested with an aphid population of mixed ages. The samples were assessed for mortality 6 days after infestation.

[4] = test system: Diabrotica Balteata (Corn Root Worm); assay: Example B2: Activity against Diabrotica balteata, sprayed maize sprouts on agar; settings: 96 h, application rate 200 ppm, L2 larvae, assessed 4 days after infestation, read-out: effect in at least one of the two categories (mortality or growth inhibition)
Protocol: Example B2: Activity Against Diabrotica Balteata (Corn Root Worm)
Maize sprouts placed onto an agar layer in 24-well microtiter plates were treated with aqueous test solutions prepared from 10′000 ppm DMSO stock solutions by spraying. After drying, the plates were infested with L2 larvae (6 to 10 per well). The samples were assessed for mortality and growth inhibition in comparison to untreated samples 4 days after infestation.

[5] = test system: Chilo suppressalis (Striped Rice Stemborer); assay: Example B1: Activity against Chilo suppressalis, artificial diet in 24-well microtiter plates; settings: 144 h, application rate 200 ppm, L2 larvae, assessed 6 days after infestation, read-out: control (at least one of mortality, anti-feedant effect, growth inhibition)
Protocol: Example B1: Activity Against Chilo suppressalis (Striped Rice Stemborer)
24-well microtiter plates with artificial diet were treated with aqueous test solutions prepared from 10′000 ppm DMSO stock solutions by pipetting. After drying, the plates were infested with L2 larvae (6-8 per well). The samples were assessed for mortality, anti-feeding effect, and growth inhibition in comparison to untreated samples 6 days after infestation. Control of Chilo suppressalis by a test sample is given when at least one of the categories mortality, anti-feedant effect, and growth inhibition is higher than the untreated sample.

[6] = test system: Euschistus heros (Neotropical Brown Stink Bug); assay: Example B3: Activity against Euschistus heros, sprayed soybean leaves on agar; settings: 120 h, application rate 200 ppm, N2 nymphs, assessed 5 days after infestation, read-out: effect in at least one of the two categories (mortality or growth inhibition)
Protocol: Example B3: Activity Against Euschistus heros (Neotropical Brown Stink Bug)
Soybean leaves on agar in 24-well microtiter plates were sprayed with aqueous test solutions prepared from 10′000 ppm DMSO stock solutions. After drying the leaves were infested with N2 nymphs. The samples were assessed for mortality and growth inhibition in comparison to untreated samples 5 days after infestation.

CCS(=O)(=O)c1c(N2Cc3cc4c(cc3C2=O)OC(F)(F)O4)nc2ccc(C(F)(F)F)cn12 [P1, 6-[3-ethylsulfonyl-6-(trifluoromethyl)imidazo[1,2-a]pyridin-2-yl]-2,2-difluoro-5H-[1,3]dioxolo[4,5-f]isoindol-7-one]
≥ 80%: percent effect (mortality or growth inhibition) at 200 ppm [1] | percent control (mortality, anti-feedant effect or growth inhibition) at 200 ppm [2] | mortality at 200 ppm [3] | percent effect (mortality or growth inhibition) at 200 ppm [4] | control (mortality, anti-feedant effect or growth inhibition) at 200 ppm [5]

CCS(=O)(=O)c1c(N2Cc3cc4c(cc3C2=O)OC(F)(F)O4)nn2cc(C(F)(F)F)ccc12 [P3, 6-[3-ethylsulfonyl-6-(trifluoromethyl)pyrazolo[1,5-a]pyridin-2-yl]-2,2-difluoro-5H-[1,3]dioxolo[4,5-f]isoindol-7-one]
≥ 80%: percent effect (mortality or growth inhibition) at 200 ppm [1] | percent control (mortality, anti-feedant effect or growth inhibition) at 200 ppm [2] | mortality at 200 ppm [3] | percent effect (mortality or growth inhibition) at 200 ppm [4] | control (mortality, anti-feedant effect or growth inhibition) at 200 ppm [5]

CCS(=O)(=O)c1c(N2Cc3cc4c(cc3C2=O)OC(F)(F)O4)nc2cc(C(F)(F)F)ccn12 [P5, 6-[3-ethylsulfonyl-7-(trifluoromethyl)imidazo[1,2-a]pyridin-2-yl]-2,2-difluoro-5H-[1,3]dioxolo[4,5-f]isoindol-7-one]
≥ 80%: percent effect (mortality or growth inhibition) at 200 ppm [1] | percent control (mortality, anti-feedant effect or growth inhibition) at 200 ppm [2] | percent effect (mortality or growth inhibition) at 200 ppm [4] | control (mortality, anti-feedant effect or growth inhibition) at 200 ppm [5]

CCS(=O)(=O)c1c(N2Cc3cc4c(cc3C2=O)OC(F)(F)O4)nn2ccc(C(F)(F)F)cc12 [P6, 6-[3-ethylsulfonyl-5-(trifluoromethyl)pyrazolo[1,5-a]pyridin-2-yl]-2,2-difluoro-5H-[1,3]dioxolo[4,5-f]isoindol-7-one]
≥ 80%: percent effect (mortality or growth inhibition) at 200 ppm [1] | percent control (mortality, anti-feedant effect or growth inhibition) at 200 ppm [2] | percent effect (mortality or growth inhibition) at 200 ppm [4] | control (mortality, anti-feedant effect or growth inhibition) at 200 ppm [5]

CCS(=O)(=O)c1c(N2Cc3cc4c(cc3C2=O)OC(F)(F)O4)nc2ccc(C(C)(F)F)cn12 [P7, 6-[6-(1,1-difluoroethyl)-3-ethylsulfonyl-imidazo[1,2-a]pyridin-2-yl]-2,2-difluoro-5H-[1,3]dioxolo[4,5-f]isoindol-7-one]
≥ 80%: percent effect (mortality or growth inhibition) at 200 ppm [1] | percent control (mortality, anti-feedant effect or growth inhibition) at 200 ppm [2] | percent effect (mortality or growth inhibition) at 200 ppm [4] | control (mortality, anti-feedant effect or growth inhibition) at 200 ppm [5]

CCS(=O)(=O)c1c(N2Cc3cc4c(cc3C2=O)OC(F)(F)O4)nc2cc(C(C)(F)F)ccn12 [P8, 6-[7-(1,1-difluoroethyl)-3-ethylsulfonyl-imidazo[1,2-a]pyridin-2-yl]-2,2-difluoro-5H-[1,3]dioxolo[4,5-f]isoindol-7-one]
≥ 80%: percent effect (mortality or growth inhibition) at 200 ppm [1] | percent control (mortality, anti-feedant effect or growth inhibition) at 200 ppm [2] | percent effect (mortality or growth inhibition) at 200 ppm [4] | control (mortality, anti-feedant effect or growth inhibition) at 200 ppm [5]

CCS(=O)(=O)c1c(N2Cc3cc4c(cc3C2=O)OC(F)(F)O4)nc2cc(Br)ccn12 [P9, 6-(7-bromo-3-ethylsulfonyl-imidazo[1,2-a]pyridin-2-yl)-2,2-difluoro-5H-[1,3]dioxolo[4,5-f]isoindol-7-one]
≥ 80%: percent effect (mortality or growth inhibition) at 200 ppm [1] | percent control (mortality, anti-feedant effect or growth inhibition) at 200 ppm [2] | percent effect (mortality or growth inhibition) at 200 ppm [4] | control (mortality, anti-feedant effect or growth inhibition) at 200 ppm [5]

CCS(=O)(=O)c1c(N2Cc3cc4c(cc3C2=O)OC(F)(F)O4)nc2ccc(Br)cn12 [P10, 6-(6-bromo-3-ethylsulfonyl-imidazo[1,2-a]pyridin-2-yl)-2,2-difluoro-5H-[1,3]dioxolo[4,5-f]isoindol-7-one]
≥ 80%: control (mortality, anti-feedant effect or growth inhibition) at 200 ppm [5]

CCS(=O)(=O)c1c(N2Cc3cc4c(cc3C2=O)OC(F)(F)O4)nc2ccc(Cl)cn12 [P11, 6-(6-chloro-3-ethylsulfonyl-imidazo[1,2-a]pyridin-2-yl)-2,2-difluoro-5H-[1,3]dioxolo[4,5-f]isoindol-7-one]
≥ 80%: percent effect (mortality or growth inhibition) at 200 ppm [6] | percent effect (mortality or growth inhibition) at 200 ppm [1] | percent control (mortality, anti-feedant effect or growth inhibition) at 200 ppm [2] | percent effect (mortality or growth inhibition) at 200 ppm [4] | control (mortality, anti-feedant effect or growth inhibition) at 200 ppm [5]

CCS(=O)(=O)c1c(N2Cc3cc4c(cc3C2=O)OC(F)(F)O4)nn2cc(Br)ccc12 [P12, 6-(6-bromo-3-ethylsulfonyl-pyrazolo[1,5-a]pyridin-2-yl)-2,2-difluoro-5H-[1,3]dioxolo[4,5-f]isoindol-7-one]
≥ 80%: percent effect (mortality or growth inhibition) at 200 ppm [1] | percent control (mortality, anti-feedant effect or growth inhibition) at 200 ppm [2] | mortality at 200 ppm [3] | percent effect (mortality or growth inhibition) at 200 ppm [4] | control (mortality, anti-feedant effect or growth inhibition) at 200 ppm [5]

CCS(=O)(=O)c1c(N2Cc3cc4c(cc3C2=O)OC(F)(F)O4)nc2cc(Cl)ccn12 [P13, 6-(7-chloro-3-ethylsulfonyl-imidazo[1,2-a]pyridin-2-yl)-2,2-difluoro-5H-[1,3]dioxolo[4,5-f]isoindol-7-one]
≥ 80%: percent effect (mortality or growth inhibition) at 200 ppm [1] | percent control (mortality, anti-feedant effect or growth inhibition) at 200 ppm [2] | percent effect (mortality or growth inhibition) at 200 ppm [4] | control (mortality, anti-feedant effect or growth inhibition) at 200 ppm [5]

CCS(=O)(=O)c1c(N2Cc3cc4c(cc3C2=O)OC(F)(F)O4)nn2cc(Cl)ccc12 [P14, 6-(6-chloro-3-ethylsulfonyl-pyrazolo[1,5-a]pyridin-2-yl)-2,2-difluoro-5H-[1,3]dioxolo[4,5-f]isoindol-7-one]
≥ 80%: percent effect (mortality or growth inhibition) at 200 ppm [1] | percent control (mortality, anti-feedant effect or growth inhibition) at 200 ppm [2] | mortality at 200 ppm [3] | percent effect (mortality or growth inhibition) at 200 ppm [4] | control (mortality, anti-feedant effect or growth inhibition) at 200 ppm [5]

CCS(=O)(=O)c1c(N2Cc3cc4c(cc3C2=O)OC(F)(F)O4)nc2cc(I)ccn12 [P16, 6-(3-ethylsulfonyl-7-iodo-imidazo[1,2-a]pyridin-2-yl)-2,2-difluoro-5H-[1,3]dioxolo[4,5-f]isoindol-7-one]
≥ 80%: percent effect (mortality or growth inhibition) at 200 ppm [1] | percent control (mortality, anti-feedant effect or growth inhibition) at 200 ppm [2] | percent effect (mortality or growth inhibition) at 200 ppm [4] | control (mortality, anti-feedant effect or growth inhibition) at 200 ppm [5]

CCS(=O)(=O)c1c(N2Cc3cc4c(cc3C2=O)OC(F)(F)O4)nc2ccc(I)cn12 [P17, 6-(3-ethylsulfonyl-6-iodo-imidazo[1,2-a]pyridin-2-yl)-2,2-difluoro-5H-[1,3]dioxolo[4,5-f]isoindol-7-one]
≥ 80%: percent effect (mortality or growth inhibition) at 200 ppm [1] | percent control (mortality, anti-feedant effect or growth inhibition) at 200 ppm [2] | percent effect (mortality or growth inhibition) at 200 ppm [4] | control (mortality, anti-feedant effect or growth inhibition) at 200 ppm [5]
